Test results as given in US8492426B1, “Use of carvedilol for treatment of diabetes mellitus” (priority 2012, dated 2013).

How the values were obtained:
[1] = system: patients with diabetes mellitus already on insulin; test: Group 1: diabetes mellitus patients already on insulin with uncontrolled blood sugar, prescribed Carvedilol with diet; format: in vivo, human
Experimental: Data has been collected utilizing the various methods described herein and included for purposes of showing results and further exemplifying the preferred embodiments of this invention. A study was performed on two groups: Group 1 and Group 2. Both groups included patients with diabetes mellitus and a history of uncontrolled blood sugar. The patients of each group were between the ages of 40 and 85 and consisted of both males and females and various ethnicities. Group 1 consisted of patients that were already on insulin (humulin mix, novolog mix, etc.) and who were unable to control their blood sugar. The patients in Group 2 were taking oral medications, were unable to control their blood sugar, and needed insulin to regulate their disease. Normal blood sugar levels were considered to be 120 mg % (mg % is milligram per 100 cc blood), which was equivalent to 6.0 HbA1c before meals or while fasting. After the first visit and examination, the patients' blood sugar and HbA1c levels were reviewed. […] Then patients were requested to report their blood sugar weekly. […] HbA1c levels were checked approximately 2-3 months after controlling the blood sugar. Group 1 data is presented below for patients with Type II diabetes mellitus who were already taking insulin and were unable to control their blood sugar. The data includes blood sugar and HbA1c levels before and after taking Carvedilol. • 1. JBM-65-M was first seen in January 2012. Their HbA1c was more than 9.0 and fasting plasma glucose was 282 mg %. They were taking 35 units at night of Lente insulin and regular insulin before each meal at a dosage of 10-30 units, on a sliding scale. They began taking an effective dosage of Carvedilol with a diet in February 2012. […] BS-81-F was taking 36 units of Humulin N twice a day in February 2012. Their HbA1c was 7.6 and mean plasma glucose was 171 mg %. They began taking an effective dosage of Carvedilol immediately. In April 2012 their HbA1c was 6.5 and their mean plasma glucose was 140 mg %. […] patient four is a Type I diabetic with two episodes of myocardial infarction and four stents post Percutaneous Transluminal Coronary Angioplasty (PTCA). In January 2012 […] HbA1c was 8.2 with a mean […] glucose of 203 mg %. They were taking 400 units of Novolog mix 70/30 in two divided doses. After Carvedilol and an improved diet, the dose of insulin has been reduced to a total of 90 units a day in two divided doses. Their HbA1c is the same but recent blood sugar was 134 mg %. • 4. […] They were taking Novolog 70/30 40 units twice a day. They were started on Carvedilol with an improved diet. […] Currently they are reporting a plasma blood glucose below 120 mg %. • 5. […] They were taking Novlog mix 70/30 20 units twice a day. […] Group 2

[2] = system: Type II diabetes mellitus patients; test: Group 2: Type II diabetes mellitus patients uncontrolled on diet and oral medication, Carvedilol used in place of insulin; format: in vivo, human
Experimental: Data has been collected utilizing the various methods described herein and included for purposes of showing results and further exemplifying the preferred embodiments of this invention. A study was performed on two groups: Group 1 and Group 2. Both groups included patients with diabetes mellitus and a history of uncontrolled blood sugar. The patients of each group were between the ages of 40 and 85 and consisted of both males and females and various ethnicities. Group 1 consisted of patients that were already on insulin (humulin mix, novolog mix, etc.) and who were unable to control their blood sugar. The patients in Group 2 were taking oral medications, were unable to control their blood sugar, and needed insulin to regulate their disease.
Normal blood sugar levels were considered to be 120 mg % (mg % is milligram per 100 cc blood), which was equivalent to 6.0 HbA1c before meals or while fasting. After the first visit and examination, the patients' blood sugar and HbA1c levels were reviewed. […] Then patients were requested to report their blood sugar weekly. […] HbA1c levels were checked approximately 2-3 months after controlling the blood sugar.
Group 2 consisted of Type II diabetes mellitus patients who could not control their blood sugar on diet nor oral medication and would need to start insulin. Carvedilol was used in place of insulin to control blood sugar as well as other anti-diabetic oral medications. • 1. […] Sitagliptin was then discontinued and the hypoglycemia subsequently disappeared. […] The last recorded HbA1c was 6.8 • 2. patient three had poorly controlled blood sugar but managed an HbA1c of 8.0 and mean fasting glucose of 183 mg %. They were taking three oral medications: Metformin 1000 mg BID, Sitagliptin 100 mg daily and Sulfonylurea. They were started on Carvedilol and their blood sugar came down to 90 mg %. […] Their HbA1c level is 6.5 • 3. […] They were prescribed Metformin and Glyburide Micro. They were also given Bayetta, however their blood sugar remained uncontrolled. […] Their HbA1c level is 8.4 • 4. […] The patient also suffered from severe Peripheral Neuritis. Their HbA1c was 10.2 in December 2011. The patient was taking Metformin 1000 mg twice a day, Sitagliptin 100 mg daily and Glyburide Micro 6 mg twice a day. The patient was started on Carvedilol in February 2012. Their HbA1c in late March 2012 was down to 8.2 with a mean plasma glucose of 189 mg %. […] Their HbA1c is now 7.8. • 5. […] They have been on Janumet […] twice a day, Glymeperide which was changed to Glyburide Micro 3 mg twice daily. […] Carvedilol was added to their regimen and their blood sugar was recently reported at 81 mg %. […] Their HbA1c level is 7.1

COc1ccccc1OCCNCC(O)COc1cccc2[nH]c3ccccc3c12 (racemic) [Carvedilol, (±)-1-(Carbazol-4-yloxy-3-[[2-(o-methoxyphenoxy-)ethyl]amino]-2-propanol]
fasting plasma glucose ([1]; patient five, April 2012, Carvedilol with diet since February 2012, before: 282 mg %): 122 mg %
HbA1c ([1]; patient five, April 2012, Carvedilol with diet since February 2012, before: more than 9.0): 5.5
insulin use after Carvedilol ([1]; patient five, by April 2012, before: 35 units Lente at night plus 10-30 units regular insulin before each meal): taken off insulin completely
dose of insulin after Carvedilol ([1]; patient four, Type I diabetic, Carvedilol and improved diet, two divided doses, before: 400 units Novolog mix 70/30): 90 units a day
HbA1c ([1]; patient four, Type I diabetic, after Carvedilol and improved diet, before: 8.2): the same
recent blood sugar ([1]; patient four, Type I diabetic, after Carvedilol and improved diet, before: mean plasma glucose 203 mg %): 134 mg %
mean plasma glucose ([1]; patient nine, April 2012, Carvedilol since February 2012, before: 171 mg %): 140 mg %
HbA1c ([1]; patient nine, April 2012, Carvedilol since February 2012, before: 7.6): 6.5
insulin use after Carvedilol ([1]; patient nine, by April 2012, before: 36 units Humulin N twice a day): taken off of insulin completely
plasma glucose ([1]; patient seven, renal failure, after five weeks on Carvedilol, off insulin, before: 249 mg %): below 120 mg %
HbA1c corresponding to plasma glucose ([1]; patient seven, after five weeks on Carvedilol, before: 10.3): 6.0
insulin use after Carvedilol ([1]; patient seven, after five weeks on Carvedilol, before: Novlog mix 70/30 20 units twice a day): taken off insulin
HbA1c ([1]; patient two, April 2012, Carvedilol with improved diet, off insulin, before (December 2011): 11.4): 8.6
plasma blood glucose ([1]; patient two, April 2012, before: 280 mg %): 200 mg %
insulin use after Carvedilol ([1]; patient two, before: Novolog 70/30 40 units twice a day): came off of insulin
plasma blood glucose ([1]; patient two, currently reported): below 120 mg %
other anti-diabetic medication after Carvedilol ([2]; patient -76): able to stop Glyburide Micro
blood sugar ([2]; patient -76, Carvedilol added to regimen, before: 273 mg % after cortisone shot, mean plasma glucose 163 mg %): 81 mg %
HbA1c ([2]; patient -76, on Carvedilol, before: 8.3): 7.1
HbA1c ([2]; patient eight, started Carvedilol recently, before: 8.5): 8.4
blood sugar ([2]; patient eight, started Carvedilol recently, before: fasting plasma glucose 197 mg %, uncontrolled on Metformin, Glyburide Micro, Bayetta): reached normal levels
adverse effect ([2]; patient one, Carvedilol taken together with Sitagliptin, disappeared after Sitagliptin was discontinued): hypoglycemia
last recorded HbA1c ([2]; patient one, Carvedilol, Sitagliptin discontinued): 6.8
blood sugar control ([2]; patient one, Carvedilol, Sitagliptin discontinued, before: blood sugar 200 mg %): controlled the patient's blood sugar
other anti-diabetic medication after Carvedilol ([2]; patient six): stopped taking Glyburide Micro
mean plasma glucose ([2]; patient six, late March 2012, Carvedilol since February 2012): 189 mg %
HbA1c ([2]; patient six, late March 2012, Carvedilol since February 2012, before (December 2011): 10.2): 8.2
blood sugar ([2]; patient six, more recently reported): 95 mg %
HbA1c ([2]; patient six, now, after stopping Glyburide Micro): 7.8
other anti-diabetic medication after Carvedilol ([2]; patient three): discontinued use of Sitagliptin
blood sugar ([2]; patient three, Carvedilol added to Metformin, Sitagliptin, Sulfonylurea, before: mean fasting glucose 183 mg %): 90 mg %
HbA1c ([2]; patient three, on Carvedilol, Sitagliptin discontinued, before: 8.0): 6.5
